# Starred links: 1 amine or outer side, 2 acyl side, 3 side chain; linkers in the order of their positions; H or OH if unused. Positions of bridges follow the written chain, without caps; N, C: chain ends. Non-standard residues stand in square brackets, D forms with d. Residues, ends and D or L forms follow the SMILES beside them. *: point of attachment. X12 = O=C(O)CN1CCN(CC(=O)O)CCN([C@@H](CCC(=O)*)C(=O)O)CCN(CC(=O)O)CC1; Ala(piperidin-4-yl) = O=C([C@H](CC1CCN([*:3])CC1)N[*:1])[*:2]; DOTA = O=C(O)CN1CCN(CC(=O)O)CCN(CC(=O)*)CCN(CC(=O)O)CC1; X8 = O=C([C@H](C[C@H]1CC[C@@H](O)CC1)N[*:1])[*:2]; Trp(5-F) = N[C@@H](Cc1c[nH]c2ccc(F)cc12)C(=O)O; Phe(3R-Me) = C[C@H](c1ccccc1)[C@H](N)C(=O)O; Phe(3-Cl) = N[C@@H](Cc1cccc(Cl)c1)C(=O)O; 1Nal = N[C@@H](Cc1cccc2ccccc12)C(=O)O; Ala(4-THP) = N[C@@H](CC1CCOCC1)C(=O)O; Ile(3-Me) = CCC(C)(C)[C@H](N)C(=O)O; Val(3-OH) = CC(C)(O)[C@H](N)C(=O)O; mTyr = N[C@@H](Cc1cccc(O)c1)C(=O)O; Tle = CC(C)(C)[C@H](N)C(=O)O; hLeu = CC(C)CC[C@H](N)C(=O)O; Dab = NCC[C@H](N)C(=O)O
# Biological target: T1, human 4lg B7-H3 (Homo sapiens, UniProt Q5ZPR3)
# T1 sequence (Q5ZPR3 29-534): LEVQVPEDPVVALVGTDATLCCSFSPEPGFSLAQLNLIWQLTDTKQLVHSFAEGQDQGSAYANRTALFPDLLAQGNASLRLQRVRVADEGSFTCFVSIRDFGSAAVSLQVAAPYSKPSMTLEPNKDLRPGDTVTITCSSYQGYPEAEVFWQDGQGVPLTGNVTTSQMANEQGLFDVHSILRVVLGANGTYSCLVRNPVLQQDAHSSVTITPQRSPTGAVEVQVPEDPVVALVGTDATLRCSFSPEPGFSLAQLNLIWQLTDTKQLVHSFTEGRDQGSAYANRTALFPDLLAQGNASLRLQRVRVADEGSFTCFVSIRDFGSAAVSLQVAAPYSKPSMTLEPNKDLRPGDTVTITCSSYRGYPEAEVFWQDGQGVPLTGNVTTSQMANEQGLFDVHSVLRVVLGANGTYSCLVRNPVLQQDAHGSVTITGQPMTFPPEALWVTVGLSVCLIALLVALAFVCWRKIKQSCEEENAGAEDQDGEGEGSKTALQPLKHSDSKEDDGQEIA
# Test: Affinity determination by surface plasmon resonance (SPR) to 4Ig B7-H3
# Conditions: SPR KD—37° C., 4Ig B7-H3; 37° C. flow cell temperature
row,SMILES,Kd [nM]
1,"CC(=O)N[C@@H](CCC(C)C)C(=O)N[C@@H](Cc1ccc(O)cc1)C(=O)N[C@H]1CSSC[C@@H](C(=O)N[C@@H](Cc2c[nH]c3ccc(F)cc23)C(=O)N[C@@H](Cc2ccccc2)C(=O)N[C@H](C(=O)N[C@H](CCC(=O)O)C(N)=O)C(C)(C)O)NC(=O)[C@H](Cc2ccc(O)cc2)NC(=O)[C@H](C(C)C)NC(=O)[C@H](CC(=O)O)NC(=O)[C@H](C[C@H]2CC[C@@H](O)CC2)NC(=O)[C@H](CCCCNC(=O)CN2CCN(CC(=O)O)CCN(CC(=O)O)CCN(CC(=O)O)CC2)NC(=O)CNC(=O)[C@H](C(C)(C)C)NC1=O [compound 424, Ac-hLeu-Y-C-Tbg-G-Lys(DOTA)-4OHCha(pk1)-D-V-Y-C-5FW-F-hydroxyVal-dGlu-CONH2] (Ac-[hLeu]YC[Tle]GK(DOTA)[X8]DVYC[Trp(5-F)]F[Val(3-OH)][dE]-NH2; disulfide 3-11)",1 to 10
2,"CC(=O)N[C@@H](CCC(C)C)C(=O)N[C@@H](Cc1ccc(O)cc1)C(=O)N[C@H]1CSSC[C@@H](C(=O)N[C@@H](Cc2c[nH]c3ccc(F)cc23)C(=O)N[C@@H](Cc2ccccc2)C(=O)N[C@H](C(=O)N[C@H](CCC(=O)O)C(N)=O)C(C)(C)O)CC(=O)[C@H](Cc2ccc(O)cc2)NC(=O)[C@H](C(C)C)NC(=O)[C@H](CC(=O)O)NC(=O)[C@H](C[C@H]2CC[C@H](O)CC2)NC(=O)[C@H](CCCCNC(=O)CN2CCN(CC(=O)O)CCN(CC(=O)O)CCN(CC(=O)O)CC2)NC(=O)CNC(=O)[C@H](C(C)(C)C)NC1=O [compound 425, Ac-hLeu-Y-C-Tbg-G-Lys(DOTA)-4OHCha(pk2)-D-V-Y-C-5FW-F-hydroxyVal-dGlu-CONH2]",1 to 10
3,"CC(=O)N[C@@H](CCC(C)C)C(=O)N[C@@H](Cc1ccc(O)cc1)C(=O)N[C@H]1CSSC[C@@H](C(=O)N[C@@H](Cc2c[nH]c3ccc(F)cc23)C(=O)N[C@@H](Cc2cccc(Cl)c2)C(=O)N[C@H](C(=O)N[C@H](CCCCNC(=O)CN2CCN(CC(=O)O)CCN(CC(=O)O)CCN(CC(=O)O)CC2)C(=O)O)C(C)(C)O)NC(=O)[C@H](Cc2ccc(O)cc2)NC(=O)[C@H](C(C)C)NC(=O)[C@H](CC(=O)O)NC(=O)[C@H](CC2CCOCC2)NC(=O)[C@H](CC2CCNCC2)NC(=O)CNC(=O)[C@H](C(C)(C)C)NC1=O [compound 430, Ac-hLeu-Y-C-Tbg-G-PipAla-ThpA-D-V-Y-C-5FW-3CIPhe-hydroxyVal-dLys(DOTA)-COOH] (Ac-[hLeu]YC[Tle]G[Ala(piperidin-4-yl)][Ala(4-THP)]DVYC[Trp(5-F)][Phe(3-Cl)][Val(3-OH)][dK](DOTA)-OH; disulfide 3-11)",< 1
4,"CC(=O)N[C@@H](CCC(C)C)C(=O)N[C@@H](Cc1ccc(O)cc1)C(=O)N[C@H]1CSSC[C@@H](C(=O)N[C@@H](Cc2c[nH]c3ccc(F)cc23)C(=O)N[C@@H](Cc2cccc(O)c2)C(=O)N[C@H](C(=O)N[C@H](CCCCNC(=O)CN2CCN(CC(=O)O)CCN(CC(=O)O)CCN(CC(=O)O)CC2)C(=O)O)C(C)(C)O)NC(=O)[C@H](Cc2ccc(O)cc2)NC(=O)[C@H](C(C)C)NC(=O)[C@H](CC(=O)O)NC(=O)[C@H](CC2CCOCC2)NC(=O)[C@H](CC2CCNCC2)NC(=O)CNC(=O)[C@H](C(C)(C)C)NC1=O [compound 431, Ac-hLeu-Y-C-Tbg-G-PipAla-ThpA-D-V-Y-C-5FW-3OHPhe-hydroxyVal-dLys(DOTA)-COOH] (Ac-[hLeu]YC[Tle]G[Ala(piperidin-4-yl)][Ala(4-THP)]DVYC[Trp(5-F)][mTyr][Val(3-OH)][dK](DOTA)-OH; disulfide 3-11)",1 to 10
5,"CCC(C)(C)[C@@H]1NC(=O)[C@@H](NC(=O)[C@H](Cc2ccc(O)cc2)NC(=O)[C@H](CCC(C)C)NC(C)=O)CSSC[C@@H](C(=O)N[C@@H](Cc2c[nH]c3ccc(F)cc23)C(=O)N[C@@H](Cc2ccccc2)C(=O)N[C@H](C(=O)N[C@H](CCCCNC(=O)CN2CCN(CC(=O)O)CCN(CC(=O)O)CCN(CC(=O)O)CC2)C(=O)O)C(C)(C)O)NC(=O)[C@H](Cc2ccc(O)cc2)NC(=O)[C@H](C(C)C)NC(=O)[C@H](CC(=O)O)NC(=O)[C@H](CC2CCOCC2)NC(=O)[C@H](CC2CCNCC2)NC(=O)CNC1=O [compound 432, Ac-hLeu-Y-C-betaMelle-G-PipAla-ThpA-D-V-Y-C-5FW-F-hydroxyVal-dLys(DOTA)-COOH] (Ac-[hLeu]YC[Ile(3-Me)]G[Ala(piperidin-4-yl)][Ala(4-THP)]DVYC[Trp(5-F)]F[Val(3-OH)][dK](DOTA)-OH; disulfide 3-11)",< 1
6,"CC(=O)N[C@@H](CCC(C)C)C(=O)N[C@@H](Cc1ccc(O)cc1)C(=O)N[C@H]1CSSC[C@@H](C(=O)N[C@@H](Cc2c[nH]c3ccc(F)cc23)C(=O)N[C@H](C(=O)N[C@H](C(=O)N[C@H](CCCCNC(=O)CN2CCN(CC(=O)O)CCN(CC(=O)O)CCN(CC(=O)O)CC2)C(=O)O)C(C)(C)O)[C@H](C)c2ccccc2)NC(=O)[C@H](Cc2ccc(O)cc2)NC(=O)[C@H](C(C)C)NC(=O)[C@H](CC(=O)O)NC(=O)[C@H](CC2CCOCC2)NC(=O)[C@H](CC2CCNCC2)NC(=O)CNC(=O)[C@H](C(C)(C)C)NC1=O [compound 434, Ac-hLeu-Y-C-Tbg-G-PipAla-ThpA-D-V-Y-C-5FW-[(2S, 3R)beta-Me-Phe]-hydroxyVal-dLys(DOTA)-COOH] (Ac-[hLeu]YC[Tle]G[Ala(piperidin-4-yl)][Ala(4-THP)]DVYC[Trp(5-F)][Phe(3R-Me)][Val(3-OH)][dK](DOTA)-OH; disulfide 3-11)",< 1
7,"CC(=O)N[C@@H](CCC(C)C)C(=O)N[C@@H](Cc1ccc(O)cc1)C(=O)N[C@H]1CSSC[C@@H](C(=O)N[C@@H](Cc2cccc3ccccc23)C(=O)N[C@@H](Cc2ccccc2)C(=O)N[C@H](C(=O)N[C@H](CCCCNC(=O)CN2CCN(CC(=O)O)CCN(CC(=O)O)CCN(CC(=O)O)CC2)C(=O)O)C(C)(C)O)NC(=O)[C@H](Cc2ccc(O)cc2)NC(=O)[C@H](C(C)C)NC(=O)[C@H](CC(=O)O)NC(=O)[C@H](CC2CCOCC2)NC(=O)[C@H](CCN)NC(=O)CNC(=O)[C@H](C(C)(C)C)NC1=O [compound 435, Ac-hLeu-Y-C-Tbg-G-Dab-ThpA-D-V-Y-C-1Nal-F-hydroxyVal-dLys(DOTA)-COOH] (Ac-[hLeu]YC[Tle]G[Dab][Ala(4-THP)]DVYC[1Nal]F[Val(3-OH)][dK](DOTA)-OH; disulfide 3-11)",< 1
8,"CC(=O)N[C@@H](CCC(C)C)C(=O)N[C@@H](Cc1ccc(O)cc1)C(=O)N[C@H]1CSSC[C@@H](C(=O)N[C@@H](Cc2c[nH]c3ccc(F)cc23)C(=O)N[C@@H](Cc2ccccc2)C(=O)N[C@H](C(=O)N[C@H](CCCCNC(=O)CC[C@@H](C(=O)O)N2CCN(CC(=O)O)CCN(CC(=O)O)CCN(CC(=O)O)CC2)C(=O)O)C(C)(C)O)NC(=O)[C@H](Cc2ccc(O)cc2)NC(=O)[C@H](C(C)C)NC(=O)[C@H](CC(=O)O)NC(=O)[C@H](CC2CCOCC2)NC(=O)[C@H](CC2CCNCC2)NC(=O)CNC(=O)[C@H](C(C)(C)C)NC1=O [compound 439, Ac-hLeu-Y-C-Tbg-G-PipAla-ThpA-D-V-Y-C-5FW-F-hydroxyVal-dLys(S-DOTAGA)-COOH] (Ac-[hLeu]YC[Tle]G[Ala(piperidin-4-yl)][Ala(4-THP)]DVYC[Trp(5-F)]F[Val(3-OH)][dK](X12)-OH; disulfide 3-11)",< 1

# Source: patent publication US20250296959A1, “B7-H3 TARGETING PEPTIDES AND CONSTRUCTS THEREOF” (Mariana Oncology Inc., priority 2024, published 2025)
